# Source: patent publication US20100316728A1, “Therapeutic mask and Method of Treatment Employing the Same” (priority 2009, published 2010)
# “And” between values parts separate entries of the source, which are not always exact repeats. Identical values can stand only once.
# Assays:
# Assay type in all cases: in vivo, human
# patients [1] = assay: Numbness felt by patients using the mask (with Lidocaine); conditions: per patient
# From the text: A separate and distinct benefit has been discovered through the use of the instant invention. […] This aids the speed in which the process can be performed on a patient.
# patients [2] = assay: Patient questionnaire on mask application, removal and skin reactions (dryness, burning, redness, itching, stinging); conditions: per patient, yes/no
# patients [3] = assay: Pain level felt by patients using the mask (with Lidocaine)
# [4] = Table IX, CO2 procedure, unmasked side
# [5] = Table X, CO2 procedure, unmasked side
# [6] = Table XI, unmasked side, 0-10 scale
# [7] = Pain Rate section, Results with Lidocaine, right side = side without mask, per patient
# [8] = Results with Lidocaine, left side, mask on one side only, one value per patient, 10 = highest pain
# [9] = Results with Lidocaine, right side, mask on one side only, one value per patient, 10 = highest pain
# [10] = Table IX, CO2 procedure, unmasked side, per patient
# [11] = Table VIII Pain Data, unmasked side, per patient
# [12] = Table X, CO2 procedure, unmasked side, per patient
# [13] = Table XII, unmasked side, 0-10 scale, per patient
smiles,measurement,setting,value
CCN(CC)CC(=O)Nc1c(C)cccc1C [Lidocaine],Numbness Cheeks- (Left Side),"patients [1]; 1-10 scale, cheeks, left side",4 and 8 and 9 and 3
same,Numbness Cheeks- (Right Side),"patients [1]; 1-10 scale, cheeks, right side",7 (3×) and 3 and 5 and 4 and 6
same,Numbness- Chin (Left Side),"patients [1]; 1-10 scale, chin, left side",4 and 8 and 9 and 7
same,Numbness- Chin (Right Side),"patients [1]; 1-10 scale, chin, right side",3 and 4 (2×) and 5 and 7 (2×) and 6
same,Numbness- Forehead (Left Side),"patients [1]; 1-10 scale, forehead, left side",4 and 8 and 9 and 2
same,Numbness- Forehead (Right Side),"patients [1]; 1-10 scale, forehead, right side",4 (2×) and 3 and 6 (2×) and 7 and 8
same,Numbness- Mouth (Left Side),"patients [1]; 1-10 scale, mouth, left side",4 and 8 and 9 and 5
same,Numbness- Mouth (Right Side),"patients [1]; 1-10 scale, mouth, right side",5 and 3 and 6 (2×) and 7 and 4 and 8
same,Numbness Cheeks- (Unmasked Side),patients [1]; [4],8 (3×) and 6 (4×)
same,Numbness- Chin (Unmasked Side),patients [1]; [4],9 and 6 (4×) and 8 (2×)
same,Numbness- Forehead (Unmasked Side),patients [1]; [4],9 and 6 (4×) and 8 (2×)
same,Numbness- Mouth (Unmasked Side),patients [1]; [4],8 (3×) and 6 (4×)
same,Numbness Cheeks- (Unmasked Side),patients [1]; [5],8 (3×) and 6 (4×)
same,Numbness- Chin (Unmasked Side),patients [1]; [5],9 and 6 (4×) and 8 (2×)
same,Numbness- Forehead (Unmasked Side),patients [1]; [5],9 and 6 (4×) and 8 (2×)
same,Numbness- Mouth (Unmasked Side),patients [1]; [5],8 (3×) and 6 (4×)
same,Numbness Average Unmasked Side,"patients [1]; Table XI summary, 0-10 scale",8.5 and 6 (4×) and 8 (2×)
same,Average,"patients [1]; Table XI, average numbness, unmasked side, 0-10 scale",8.5 and 6 (4×) and 8 (2×)
same,Numbness Cheeks- (Unmasked Side),patients [1]; [6],8 (3×) and 6 (4×)
same,Numbness- Chin (Unmasked Side),patients [1]; [6],9 and 6 (4×) and 8 (2×)
same,Numbness- Forehead (Unmasked Side),patients [1]; [6],9 and 6 (4×) and 8 (2×)
same,Numbness- Mouth (Unmasked Side),patients [1]; [6],8 (3×) and 6 (4×)
same,Dryness Right side,patients [2],no
same,Burning Right,patients [2]; right side,no (2×) and yes
same,Itching Right,patients [2]; right side,no
same,Redness Right,patients [2]; right side,yes (2×) and no
same,Stinging Right,patients [2]; right side,yes (2×) and no
same,Pain After proc. Cheeks (Left Side),"patients [3]; 1-10 scale, 1 least pain, 10 highest, after Fraxel or CO2 procedure, cheeks, left side",10 and 6 and 5
same,Pain After proc. Chin (Left Side),"patients [3]; 1-10 scale, 1 least pain, 10 highest, after Fraxel or CO2 procedure, chin, left side",10 and 6 and 5
same,Pain After proc. Forehead (Left Side),"patients [3]; 1-10 scale, 1 least pain, 10 highest, after Fraxel or CO2 procedure, forehead, left side",10 and 6
same,Average Right Side,"patients [3]; Pain Rate section, Results with Lidocaine, average pain, right side = side without mask, per patient",8.00 and 5.00 and 9.00 and 2.00
same,Pain After proc. Cheeks (Right Side),patients [3]; [7],8 and 5 and 9 and 2
same,Pain After proc. Chin (Right Side),patients [3]; [7],8 and 5 and 9 and 2
same,Pain After proc. Forehead (Right Side),patients [3]; [7],8 and 5 and 9 and 2
same,Pain After proc. Mouth (Right Side),patients [3]; [7],8 and 5 and 9 and 2
same,Average Left Side,"patients [3]; Results with Lidocaine, average pain of mouth, cheeks, forehead, chin, left side, per patient",10.00 and 6.00 and 5.00
same,Average Right Side,"patients [3]; Results with Lidocaine, average pain of mouth, cheeks, forehead, chin, right side, per patient",4.00 and 8.25 and 9.25 and 9.00 and 4.50 and 10.00
same,Pain After proc. Cheeks (Left Side),patients [3]; [8],10 and 6 and 5
same,Pain After proc. Chin (Left Side),patients [3]; [8],10 and 6 and 5
same,Pain After proc. Forehead (Left Side),patients [3]; [8],10 and 6 (2×)
same,Pain After proc. Mouth (Left Side),patients [3]; [8],10 and 6 and 4
same,Pain After proc. Cheeks (Right Side),patients [3]; [9],4 and 7 and 8 and 9 (2×) and 10
same,Pain After proc. Chin (Right Side),patients [3]; [9],4 and 6 (2×) and 8 and 9 and 10
same,Pain After proc. Forehead (Right Side),patients [3]; [9],4 (2×) and 10 (2×) and 8 and 9
same,Pain After proc. Mouth (Right Side),patients [3]; [9],4 (2×) and 10 (2×) and 8 and 9
same,Pain After proc. Cheeks (Unmasked Side),patients [3]; [10],8 (3×) and 9 and 2 and 5 and 6
same,Pain After proc. Chin (Unmasked Side),patients [3]; [10],8 (3×) and 9 and 2 and 5 and 6
same,Pain After proc. Forehead (Unmasked Side),patients [3]; [10],8 (3×) and 9 and 2 and 5 and 7
same,Pain After proc. Mouth (Unmasked Side),patients [3]; [10],8 (3×) and 9 and 2 and 5 and 6
same,Average Pain (Unmasked Side),patients [3]; [11],8 (3×) and 9 and 2 and 5 and 6.3
same,Pain After proc. Cheeks (Unmasked Side),patients [3]; [11],8 (3×) and 9 and 2 and 5 and 6
same,Pain After proc. Chin (Unmasked Side),patients [3]; [11],8 (3×) and 9 and 2 and 5 and 6
same,Pain After proc. Forehead (Unmasked Side),patients [3]; [11],8 (3×) and 9 and 2 and 5 and 7
same,Pain After proc. Mouth (Unmasked Side),patients [3]; [11],8 (3×) and 9 and 2 and 5 and 6
same,Pain After proc. Cheeks (Unmasked Side),patients [3]; [12],8 (3×) and 9 and 2 and 5 and 6
same,Pain After proc. Chin (Unmasked Side),patients [3]; [12],8 (3×) and 9 and 2 and 5 and 6
same,Pain After proc. Forehead (Unmasked Side),patients [3]; [12],8 (3×) and 9 and 2 and 5 and 7
same,Pain After proc. Mouth (Unmasked Side),patients [3]; [12],8 (3×) and 9 and 2 and 5 and 6
same,Average Pain (Unmasked Side),"patients [3]; Table XII summary, 0-10 scale, per patient",8 (3×) and 9 and 2 and 5 and 6.3
same,Average Pain (Unmasked Side),patients [3]; [13],8 (3×) and 9 and 2 and 5 and 6.3
same,Pain After proc. Cheeks (Unmasked Side),patients [3]; [13],8 (3×) and 9 and 2 and 5 and 6
same,Pain After proc. Chin (Unmasked Side),patients [3]; [13],8 (3×) and 9 and 2 and 5 and 6
same,Pain After proc. Forehead (Unmasked Side),patients [3]; [13],8 (3×) and 9 and 2 and 5 and 7
same,Pain After proc. Mouth (Unmasked Side),patients [3]; [13],8 (3×) and 9 and 2 and 5 and 6
